The results in this text go back to ChEMBL document CHEMBL1125524, “Adenosine A1 antagonists. 2. Structure-activity relationships on diuretic activities and protective effects against acute renal failure” (J Med Chem, 1992).

Assay [1] has as its system Rattus norvegicus. In words: Percent inhibition of Urea nitrogen by the compound given as ratio of UN value in treated to vehicle treated ones after intraperitoneal administration of 1 mg/kg of compound to rats(vehicle 156.2+/-6.1). The following applies: ip. The assay is classed as functional.
Assay [2] relates to Rattus norvegicus. In words: Urea nitrogen concentration measured after intraperitoneal administration of 1 mg/kg of compound to rats(vehicle 156.2+/-6.1). The assay is classed as functional.
Assay [3] deals with Rattus norvegicus. In words: Ratio of urinary excretion value (Na+ concentration) in treated rats to that in control rats, at a peroral dose of 0.4 mg/Kg. It counts as functional, Urine.
Assay [4] concerns Rattus norvegicus. In words: Effect on urinary excretion potassium and sodium after oral administration of 0.4 mg/kg to rats(potassium and sodium excretion in control rat is 0.180+/-0.017). The assay is classed as functional, Urine.
Assay [5] relates to Rattus norvegicus. In words: Ratio of sodium ion/potassium ion concentration in treated rats to that in control rats, at a peroral dose of 1.6 mg/Kg. The assay is classed as functional.
Assay [6] deals with Rattus norvegicus. In words: Ratio of urinary excretion value (urinary volume) in treated rats to that in control rats, at a peroral dose of 1.6 mg/Kg. It counts as functional, Urine.
In assay [7] the test system is Rattus norvegicus. In words: Percent inhibition of serum creatinine by the compound given as ratio of Cr value in treated to vehicle treated ones after intraperitoneal administration of 1 mg/kg of compound to rats(vehicle 4.82+/-0.24). The assay is classed as functional. Particulars: ip.
The subject of assay [8] is Rattus norvegicus. In words: Oral diuretic activity was measured after oral administration of 0.4 mg/kg to rats(control volume is 1.15+/-0.17). It counts as functional, Urine.
In assay [9] the target is Adenosine A2 receptor (Rattus norvegicus, UniProt P29276+P30543).
Assay [10] concerns Rattus norvegicus. In words: Ratio of urinary excretion value (urinary volume) in treated rats to that in control rats, at a peroral dose of 0.4 mg/Kg. It counts as functional, Urine.
The target in assay [11] is T1, Adenosine receptor A1 (Cavia porcellus, UniProt P47745).
T1 sequence (P47745 whole entry): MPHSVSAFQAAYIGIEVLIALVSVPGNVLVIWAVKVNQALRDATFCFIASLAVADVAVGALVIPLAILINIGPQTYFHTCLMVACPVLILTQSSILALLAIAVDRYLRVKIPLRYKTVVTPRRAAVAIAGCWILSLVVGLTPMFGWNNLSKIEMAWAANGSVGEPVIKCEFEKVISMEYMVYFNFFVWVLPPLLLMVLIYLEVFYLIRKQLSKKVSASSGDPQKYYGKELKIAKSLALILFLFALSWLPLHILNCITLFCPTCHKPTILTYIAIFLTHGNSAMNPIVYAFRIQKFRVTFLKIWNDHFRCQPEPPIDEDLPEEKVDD
Description: Binding affinity against adenosine A1 receptor in guinea pig forebrain membranes using N6-[3H]cyclohexyladenosine as radioligand

For assay [12], the system named is Rattus norvegicus. In words: Percent inhibition of serum creatinine by the compound given as ratio of Cr value in treated to vehicle treated ones after intraperitoneal administration of 1 mg/kg of compound to rats(vehicle 4.74+/-0.31). The following applies: ip. It counts as functional.
Assay [13] has as its system Rattus norvegicus. In words: Effect on urinary excretion potassium and sodium after oral administration of 1.6 mg/kg to rats(potassium and sodium excretion in control rat is 0.174+/-0.013). The assay is classed as functional, Urine.
Assay [14] deals with Rattus norvegicus. In words: Serum creatinine concentration measured after intraperitoneal administration of 1 mg/kg of compound to rats(vehicle 4.82+/-0.24). It counts as functional.
Assay [15] has as its system Rattus norvegicus. In words: Ratio of urinary excretion value (Na+ concentration) in treated rats to that in control rats, at a peroral dose of 1.6 mg/Kg. It counts as functional, Urine.
Assay [16] deals with Rattus norvegicus. In words: Oral diuretic activity was measured after oral administration of 1.6 mg/kg to rats(control volume is 0.86+/-0.09). It counts as functional, Urine.
Assay [17] has as its system Rattus norvegicus. In words: Serum creatinine concentration measured after intraperitoneal administration of 1 mg/kg of compound to rats(vehicle 4.74+/-0.31). It counts as functional.
Assay [18] deals with Rattus norvegicus. In words: Ratio of sodium ion/potassium ion concentration in treated rats to that in control rats, at a peroral dose of 0.4 mg/Kg. It counts as functional.
The subject of assay [19] is Rattus norvegicus. In words: Percent inhibition of Urea nitrogen by the compound given as ratio of UN value in treated to vehicle treated ones after intraperitoneal administration of 1 mg/kg of compound to rats(vehicle 138.8+/-7.8). It counts as functional. Particulars: ip.
For assay [20], the system named is Rattus norvegicus. In words: Urea nitrogen concentration measured after intraperitoneal administration of 1 mg/kg of compound to rats(vehicle 138.8+/-7.8). The assay is classed as functional.

On to `CCCCn1c(=O)c2nc(C3CCCC3)[nH]c2n(CCCC)c1=O`, for which the inhibition in vivo at 1 mg/kg in assay [1] turned out to be 2%; in assay [7], 16%; in [12], 42%; in [19], 56%. For the same compound, the UN is 153.6 mg/dL in [2] and 75 mg/dL in [20]. Also, the T/C in assay [3] is reported as 1.61; in assay [6], 1.86; in assay [10], 1.26; in [15], 1.72. The Na is on record as 0.309 m equiv 6hr-1 100g-1 in [4] and 0.299 m equiv 6hr-1 100g-1 in assay [13]. Further, the figures for the “Na+/K+” value in assay [5] and in assay [18] were 1.32 and 1.23, respectively. The results for the Urine volume in assay [8] and in assay [16] were 1.45 ml 6hr-1 100g-1 and 1.6 ml 6hr-1 100g-1, respectively. Also, the values for the Ki in assay [9] and in assay [11] were 170 nM and 4.2 nM, respectively. The Cr in assay [14] is 4.03 mg/dL; in assay [17], 2.74 mg/dL.

As a reminder, the inhibition in vivo is the relative decrease from the control value, in per cent. In general, Ki refers to a measure of affinity in units of concentration, obtained from inhibition or displacement. Lower therefore signals tighter binding.
